Experimental data reported in PubChem BioAssay AID652027 (The Scripps Research Institute Molecular Screening Center, 2013).
Active and inactive are the calls of the source.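 How the source made its calls: active means STAT3 reporter signal fold change below 0.5 at 10 µM; inactive means the rest.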

System: U3A cells, IL-6 STAT3 luciferase reporter, luminescence
Assay: IL-6-induced STAT3 luciferase reduction – U3A cells, luminescence, assay provider run, counter-screen for STAT5 inhibitor project, late-stage follow-up (AID 652027)
Details: at 10 µM; stronger effect = lower value

Compound | fold change
CN1/C(=C\C(=O)CN2CCc3ccccc3C2)C(C)(C)c2ccccc21 | 1.28 (inactive)
CN1/C(=C\C(=O)CN2C(=O)c3ccc([N+](=O)[O-])cc3C2=O)C(C)(C)c2ccccc21 | 0.77 (inactive)
CN1/C(=C\C(=O)CN2CCCC2)C(C)(C)c2ccccc21 | 0.72 (inactive)
CN1/C(=C\C(=O)CN2C(=O)c3ccccc3CS2(=O)=O)C(C)(C)c2ccccc21 | 0.65 (inactive)
COc1cccc2cc(C(=O)C[n+]3ccc4ccccc4c3)c(=O)oc12 | 1.17 (inactive)
O=C(C[n+]1ccc2ccccc2c1)Nc1ccccc1 | 1.74 (inactive)
CN1/C(=C\C(=O)CN2C(=O)NC(C)(c3ccc(Cl)cc3)C2=O)C(C)(C)c2ccccc21 (stereo not given) | 0.75 (inactive)
CCOC(=O)C1CCCN(CC(=O)/C=C2/N(C)c3ccccc3C2(C)C)C1 (stereo not given) | 1.16 (inactive)
CN1/C(=C\C(=O)CN2C(=O)c3ccccc3S2(=O)=O)C(C)(C)c2ccccc21 | 0.82 (inactive)
CN1/C(=C\C(=O)C[n+]2ccccc2)C(C)(C)c2ccccc21 | 0.77 (inactive)
CN1/C(=C\C(=O)Cn2cnc3ccc(Cl)cc3c2=O)C(C)(C)c2ccccc21 | 0.92 (inactive)
COC(=O)C1CCCCN1CC(=O)/C=C1/N(C)c2ccccc2C1(C)C (stereo not given) | 1.04 (inactive)
CN1/C(=C\C(=O)Cn2c(=O)c(C#N)cn(C)c2=O)C(C)(C)c2ccccc21 | 1.03 (inactive)
O=C(C[n+]1ccc2ccccc2c1)c1ccccc1 | 1.04 (inactive)
CN1/C(=C\C(=O)Cn2cc(C(F)(F)F)ccc2=O)C(C)(C)c2ccccc21 | 1.09 (inactive)
O=C(C[n+]1ccc2ccccc2c1)c1cc2ccccc2oc1=O | 0.84 (inactive)
Cc1cc[n+](CC(=O)/C=C2\N(C)c3ccccc3C2(C)C)cc1 | 0.68 (inactive)
O=C(C[n+]1ccc2ccccc2c1)c1ccc2ccccc2c1 | 1.34 (inactive)
CN1/C(=C\C(=O)CN2C(=O)C3CC=CCC3C2=O)C(C)(C)c2ccccc21 (stereo not given) | 0.7 (inactive)
CN1/C(=C\C(=O)C[n+]2cccc(-c3ccccc3)c2)C(C)(C)c2ccccc21 | 0.55 (inactive)
COc1ccc2oc(=O)c(C(=O)C[n+]3ccc4ccccc4c3)cc2c1 | 1.15 (inactive)
CN1/C(=C\C(=O)CN2C(=O)c3ccccc3C2=O)C(C)(C)c2ccccc21 | 0.87 (inactive)
Cc1cc[n+](CC(=O)/C=C2\N(C)c3ccccc3C2(C)C)c(C)c1 | 0.61 (inactive)
CC(C)(C)C(=O)C[n+]1ccc2ccccc2c1 | 0.93 (inactive)
CN1/C(=C\C(=O)Cn2nnc(-c3ccccc3)n2)C(C)(C)c2ccccc21 | 0.62 (inactive)
